From ChEMBL document CHEMBL1201862, “PubChem BioAssay data set” (2004)
Calls of active or inactive are those of the source.

Assays:
[1] = target: Estrogen receptor beta (Homo sapiens, UniProt Q92731);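 also: recombinant ER-beta bound to coactivator SRC1 peptide in presence of estradiol agonist; inhibitors block coactivator peptide binding and lower the FRET signal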
[2] = target: Glucose-6-phosphate 1-dehydrogenase (Homo sapiens, UniProt P11413); assay: inhibition of Homo sapiens G6PD, dose series – biochemical, fluorescence, selectivity assay for P. falciparum G6PD inhibitor project, dose response (AID 504792); format: functional
Glucose-6-phosphate 1-dehydrogenase, sequence (P11413 whole entry): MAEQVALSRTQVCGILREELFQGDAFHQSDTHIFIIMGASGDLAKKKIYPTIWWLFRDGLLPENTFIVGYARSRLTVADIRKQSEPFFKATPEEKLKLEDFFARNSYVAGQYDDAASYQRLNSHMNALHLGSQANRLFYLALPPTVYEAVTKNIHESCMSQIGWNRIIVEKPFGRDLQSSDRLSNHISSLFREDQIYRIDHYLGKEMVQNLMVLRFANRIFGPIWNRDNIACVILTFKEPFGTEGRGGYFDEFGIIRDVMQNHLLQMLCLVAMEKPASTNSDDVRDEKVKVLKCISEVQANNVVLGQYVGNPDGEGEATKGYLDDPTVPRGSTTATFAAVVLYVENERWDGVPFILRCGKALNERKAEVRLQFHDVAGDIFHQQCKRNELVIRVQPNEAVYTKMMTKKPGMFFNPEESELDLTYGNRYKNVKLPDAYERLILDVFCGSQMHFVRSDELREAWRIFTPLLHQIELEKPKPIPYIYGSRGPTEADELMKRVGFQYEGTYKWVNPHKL

[3] = viability of HCT116 lacking mutant beta-catenin – cell-based, human colon tumor, dose response (AID 1045); format: functional;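 also: HCT116 colon tumor cells with beta catenin knocked out; cells exposed to compound for 60 hours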
[4] = target: T1, Streptokinase A (Streptococcus pyogenes serotype M1, UniProt P10520); assay: viability-normalized secreted streptokinase activity reduction – plasminogen activation absorbance, OD405, dose response (AID 1914); format: functional, Streptococcus pyogenes M1 GAS;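 also: secreted streptokinase activity via plasminogen activation per viability signal from cell pellet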
T1 sequence (P10520 whole entry): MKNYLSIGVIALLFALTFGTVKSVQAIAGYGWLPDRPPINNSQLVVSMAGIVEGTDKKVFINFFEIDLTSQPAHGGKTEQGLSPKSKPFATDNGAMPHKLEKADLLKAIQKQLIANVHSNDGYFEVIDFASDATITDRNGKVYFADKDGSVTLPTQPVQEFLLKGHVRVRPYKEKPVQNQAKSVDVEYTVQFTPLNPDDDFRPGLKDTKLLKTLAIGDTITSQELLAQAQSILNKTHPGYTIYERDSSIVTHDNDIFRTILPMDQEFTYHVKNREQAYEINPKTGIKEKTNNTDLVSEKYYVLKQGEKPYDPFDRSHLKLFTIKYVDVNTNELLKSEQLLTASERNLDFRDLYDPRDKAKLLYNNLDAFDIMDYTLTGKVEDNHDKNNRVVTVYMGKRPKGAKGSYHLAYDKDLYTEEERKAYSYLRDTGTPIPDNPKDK

[5] = target: T2, Apoptotic protease-activating factor 1 (Homo sapiens, UniProt O14727); format: functional
T2 sequence (O14727 whole entry): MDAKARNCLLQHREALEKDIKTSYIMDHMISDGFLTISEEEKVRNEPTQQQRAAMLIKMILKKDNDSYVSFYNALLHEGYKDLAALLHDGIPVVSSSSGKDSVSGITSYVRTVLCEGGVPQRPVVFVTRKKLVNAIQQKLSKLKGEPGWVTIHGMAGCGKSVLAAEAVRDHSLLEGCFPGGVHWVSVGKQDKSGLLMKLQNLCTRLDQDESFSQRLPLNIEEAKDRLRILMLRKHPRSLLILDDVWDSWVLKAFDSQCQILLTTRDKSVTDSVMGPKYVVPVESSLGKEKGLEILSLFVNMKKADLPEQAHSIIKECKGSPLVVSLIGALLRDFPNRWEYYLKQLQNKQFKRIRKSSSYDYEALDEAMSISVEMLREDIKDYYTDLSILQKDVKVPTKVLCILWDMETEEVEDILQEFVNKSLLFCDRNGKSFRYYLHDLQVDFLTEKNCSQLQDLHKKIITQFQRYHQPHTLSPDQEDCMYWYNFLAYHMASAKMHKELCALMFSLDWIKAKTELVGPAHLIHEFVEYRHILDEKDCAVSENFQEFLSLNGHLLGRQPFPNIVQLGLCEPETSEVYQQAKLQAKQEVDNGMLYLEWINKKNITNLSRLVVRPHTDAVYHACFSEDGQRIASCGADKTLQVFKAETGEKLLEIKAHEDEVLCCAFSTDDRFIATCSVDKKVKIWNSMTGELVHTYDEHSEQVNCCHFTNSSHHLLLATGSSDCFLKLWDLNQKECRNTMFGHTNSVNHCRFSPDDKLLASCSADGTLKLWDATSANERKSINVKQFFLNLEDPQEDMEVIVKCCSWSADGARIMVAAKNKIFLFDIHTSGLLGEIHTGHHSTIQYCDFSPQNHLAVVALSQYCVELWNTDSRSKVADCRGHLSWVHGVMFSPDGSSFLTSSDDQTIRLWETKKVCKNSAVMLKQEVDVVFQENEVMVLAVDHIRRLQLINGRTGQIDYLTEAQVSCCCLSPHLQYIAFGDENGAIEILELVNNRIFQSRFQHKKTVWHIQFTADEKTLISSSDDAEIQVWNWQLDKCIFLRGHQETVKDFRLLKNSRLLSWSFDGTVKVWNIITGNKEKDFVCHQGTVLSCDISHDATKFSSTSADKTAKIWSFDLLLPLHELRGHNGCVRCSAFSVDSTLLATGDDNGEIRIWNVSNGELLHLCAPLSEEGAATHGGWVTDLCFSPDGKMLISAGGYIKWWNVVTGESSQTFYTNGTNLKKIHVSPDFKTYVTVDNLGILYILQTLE

[6] = target: T3, Replicative DNA helicase DnaB (Mycobacterium tuberculosis, UniProt P9WMR3); assay: DnaB intein splicing inhibitors, dose response, biochemical, cell-free fluorescence (AID 449749); format: functional
T3 sequence (P9WMR3 whole entry): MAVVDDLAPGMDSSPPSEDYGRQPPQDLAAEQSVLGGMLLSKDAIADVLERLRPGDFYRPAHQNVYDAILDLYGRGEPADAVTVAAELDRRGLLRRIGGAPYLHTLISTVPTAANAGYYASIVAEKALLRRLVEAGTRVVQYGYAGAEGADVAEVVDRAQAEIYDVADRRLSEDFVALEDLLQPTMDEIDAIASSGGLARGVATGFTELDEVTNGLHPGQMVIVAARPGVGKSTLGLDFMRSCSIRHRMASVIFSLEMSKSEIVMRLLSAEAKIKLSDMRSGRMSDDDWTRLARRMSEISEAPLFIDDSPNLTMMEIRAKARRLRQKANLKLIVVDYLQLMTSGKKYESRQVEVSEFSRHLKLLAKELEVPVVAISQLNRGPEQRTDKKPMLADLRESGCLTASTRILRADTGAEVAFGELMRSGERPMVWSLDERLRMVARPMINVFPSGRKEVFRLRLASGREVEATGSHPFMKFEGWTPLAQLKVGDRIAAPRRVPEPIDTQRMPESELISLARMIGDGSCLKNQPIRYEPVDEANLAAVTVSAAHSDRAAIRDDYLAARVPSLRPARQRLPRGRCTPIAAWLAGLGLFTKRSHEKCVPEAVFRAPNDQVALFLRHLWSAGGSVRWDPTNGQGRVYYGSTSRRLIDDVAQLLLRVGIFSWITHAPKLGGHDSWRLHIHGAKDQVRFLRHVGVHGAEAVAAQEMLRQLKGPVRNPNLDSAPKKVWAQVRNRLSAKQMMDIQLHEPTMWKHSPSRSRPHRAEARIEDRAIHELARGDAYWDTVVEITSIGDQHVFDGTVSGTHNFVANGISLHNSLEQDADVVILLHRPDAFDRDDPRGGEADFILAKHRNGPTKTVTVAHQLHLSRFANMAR

Estrogen receptor beta, sequence (Q92731 whole entry): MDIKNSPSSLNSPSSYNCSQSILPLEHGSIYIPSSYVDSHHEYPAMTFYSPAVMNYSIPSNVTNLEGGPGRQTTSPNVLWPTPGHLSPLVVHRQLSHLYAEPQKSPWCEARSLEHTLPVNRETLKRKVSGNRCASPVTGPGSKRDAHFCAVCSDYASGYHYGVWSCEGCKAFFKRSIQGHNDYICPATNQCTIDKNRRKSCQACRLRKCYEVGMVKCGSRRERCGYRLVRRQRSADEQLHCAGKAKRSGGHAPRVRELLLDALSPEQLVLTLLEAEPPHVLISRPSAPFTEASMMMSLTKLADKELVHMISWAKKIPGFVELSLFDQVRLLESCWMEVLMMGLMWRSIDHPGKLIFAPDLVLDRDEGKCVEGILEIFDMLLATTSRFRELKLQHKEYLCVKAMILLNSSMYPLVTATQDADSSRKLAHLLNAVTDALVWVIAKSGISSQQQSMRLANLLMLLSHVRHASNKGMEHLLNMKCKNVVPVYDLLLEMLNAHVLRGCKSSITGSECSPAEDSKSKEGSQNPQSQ

COc1ccc(C(=O)c2c(C(F)(F)F)oc3c2C(=O)c2ccccc2C3=O)cc1
IC50 [1]: > 50 µM (not active) | IC50 [2]: > 80 µM (inactive) | EC50 [3]: 2.55 µM (active) | EC50 [4]: > 150 µM (not active) | IC50 [5]: 5.29 µM (active) | AC50 [6]: 0.164 µM (active)
